Measurements from patent US7456167B2, “Cyclopropyl fused indolobenzazepine HCV NS5B inhibitors” (Bristol-Myers Squibb Company, priority 2006, dated 2008).

Tests used:
[1] = target: T1, HCV NS5B RdRp genotype 1b (Hepatitis C virus genotype 1b, UniProt Q9WMX2); test: Modified HCV NS5B RdRp enzyme assay (preincubation protocol); format: biochemical; settings: HCV NS5B RdRp genotype 1b; preincubation protocol; read-out: IC50
T1 construct: The protein was expressed with an 18 amino acid C-terminal truncation to enhance the solubility; made in house; host or cells: E. coli BL21(DE3)
T1 sequence (Q9WMX2 2420-2992): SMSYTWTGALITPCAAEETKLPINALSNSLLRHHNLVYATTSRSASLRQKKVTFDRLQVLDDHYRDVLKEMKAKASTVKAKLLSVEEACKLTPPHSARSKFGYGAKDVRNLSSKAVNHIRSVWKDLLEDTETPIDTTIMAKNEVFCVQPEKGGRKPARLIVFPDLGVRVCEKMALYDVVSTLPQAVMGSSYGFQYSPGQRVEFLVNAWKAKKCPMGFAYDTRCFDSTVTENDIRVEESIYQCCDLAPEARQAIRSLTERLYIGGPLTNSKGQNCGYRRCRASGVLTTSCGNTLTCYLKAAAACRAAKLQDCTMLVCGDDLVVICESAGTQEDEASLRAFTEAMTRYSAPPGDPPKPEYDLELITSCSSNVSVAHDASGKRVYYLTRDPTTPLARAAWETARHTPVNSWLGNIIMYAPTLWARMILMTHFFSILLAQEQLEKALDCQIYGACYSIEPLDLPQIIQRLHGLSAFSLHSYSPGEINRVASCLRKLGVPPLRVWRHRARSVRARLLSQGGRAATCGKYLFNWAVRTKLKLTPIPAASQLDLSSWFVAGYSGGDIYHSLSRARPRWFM
Protocol: HCV NS5B RdRp cloning, expression, and purification. The cDNA encoding the NS5B protein of HCV, genotype 1b, was cloned into the pET21a expression vector. The protein was expressed with an 18 amino acid C-terminal truncation to enhance the solubility. The E. coli competent cell line BL21(DE3) was used for expression of the protein. Cultures were grown at 37° C. for ˜4 hours until the cultures reached an optical density of 2.0 at 600 nm. The cultures were cooled to 20° C. and induced with 1 mM IPTG. Fresh ampicillin was added to a final concentration of 50 μg/ml and the cells were grown overnight at 20° C.
Cell pellets (3 L) were lysed for purification to yield 15-24 mgs of purified NS5B. The lysis buffer consisted of 20 mM Tris-HCl, pH 7.4, 500 mM NaCl, 0.5% triton X-100, 1 mM DTT, 1 mM EDTA, 20% glycerol, 0.5 mg/ml lysozyme, 10 mM MgCl2, 15 ug/ml deoxyribonuclease I, and Complete TM protease inhibitor tablets (Roche). After addition of the lysis buffer, frozen cell pellets were resuspended using a tissue homogenizer. To reduce the viscosity of the sample, aliquots of the lysate were sonicated on ice using a microtip attached to a Branson sonicator. The sonicated lysate was centrifuged at 100,000×g for 1 hr at 4° C. and filtered through a 0.2 μm filter unit (Corning).
The protein was purified using three sequential chromatography steps: Heparin sepharose CL-6B, polyU sepharose 4B, and Hitrap SP sepharose (Pharmacia). The chromatography buffers were identical to the lysis buffer but contained no lysozyme, deoxyribonuclease I, MgCl2 or protease inhibitor and the NaCl concentration of the buffer was adjusted according to the requirements for charging the protein onto the column. Each column was eluted with a NaCl gradient which varied in length from 5-50 column volumes depending on the column type. After the final chromatography step, the resulting purity of the enzyme is >90% based on SDS-PAGE analysis. The enzyme was aliquoted and stored at −80° C.
Standard HCV NS5B RdRp enzyme assay. HCV RdRp genotype 1b assays were run in a final volume of 60 μl in 96 well plates (Costar 3912). The assay buffer is composed of 20 mM Hepes, pH 7.5, 2.5 mM KCl, 2.5 mM MgCl2, 1 mM DTT, 1.6 U RNAse inhibitor (Promega N2515), 0.1 mg/ml BSA (Promega R3961), and 2% glycerol. All compounds were serially diluted (3-fold) in DMSO and diluted further in water such that the final concentration of DMSO in the assay was 2%. HCV RdRp genotype 1b enzyme was used at a final concentration of 28 nM. A polyA template was used at 6 nM, and a biotinylated oligo-dT12 primer was used at 180 nM final concentration. Template was obtained commercially (Amersham 27-4110). Biotinylated primer was prepared by Sigma Genosys. 3H-UTP was used at 0.6 μCi (0.29 μM total UTP). Reactions were initiated by the addition of enzyme, incubated at 30° C. for 60 min, and stopped by adding 25 μl of 50 mM EDTA containing SPA beads (4 μg/μl, Amersham RPNQ 0007). Plates were read on a Packard Top Count NXT after >1 hr incubation at room temperature.
Modified HCV NS5B RdRp enzyme assay. A modified enzyme assay was performed essentially as described for the standard enzyme assay except for the following: The biotinylated oligo dT12 primer was precaptured on streptavidin-coated SPA beads by mixing primer and beads in assay buffer and incubating at room temperature for one hour. Unbound primer was removed after centrifugation. The primer-bound beads were resuspended in 20 mM Hepes buffer, pH 7.5 and used in the assay at final concentrations of 20 nM primer and 0.67 μg/μl beads. Order of addition in the assay: enzyme (14 nM) was added to diluted compound followed by the addition of a mixture of template (0.2 nM), 3H-UTP (0.6 μCi, 0.29 μM), and primer-bound beads, to initiate the reaction; concentrations given are final. Reactions were allowed to proceed for 4 hours at 30° C.
IC50 values for compounds were determined using seven different [I]. […]

HCV replicon cells = test: HCV replicon FRET assay; format: cell-based; settings: Hepatitis C virus; HCV replicon cells; FRET assay; read-out: EC50
From the text: FRET Assay Preparation. To perform the HCV FRET screening assay, 96-well cell culture plates were used. The FRET peptide (Anaspec, Inc.) (Taliani et al., Anal. Biochem. 1996, 240, 60-67) contains a fluorescence donor, EDANS, near one end of the peptide and an acceptor, DABCYL, near the other end. The fluorescence of the peptide is quenched by […] resonance energy transfer (RET) between the donor and the acceptor, but as the NS3 protease cleaves the peptide the products are released from RET quenching and the fluorescence of the donor becomes apparent. The assay reagent was made as follows: 5× cell Luciferase cell culture lysis reagent from Promega (#E153A) diluted to 1× with dH2O, NaCl added to 150 mM final, the FRET peptide diluted to 20 uM final from a 2 mM stock.
To prepare plates, HCV replicon cells, with or without a Renilla luciferase reporter gene, were trypsinized and placed into each well of a 96-well plate with titrated test compounds added in columns 3 through 12; columns 1 and 2 contained a control compound (HCV protease inhibitor), and the bottom row contained cells without compound. The plates were then placed in a CO2 incubator at 37° C.
Assays. Subsequent to addition of the test compounds described above (FRET Assay Preparation), at various times the plate was removed and Alamar blue solution (Trek Diagnostics, #00-100) was added per well as a measure of cellular toxicity. After reading in a Cytoflour 4000 instrument (PE Biosystems), plates were rinsed with PBS and then used for FRET assay by the addition of 30 ul of the FRET peptide assay reagent described above (FRET Assay Preparation) per well. The plate was then placed into the Cytoflour 4000 instrument which had been set to 340 excite/490 emission, automatic mode for 20 cycles and the plate read in a kinetic mode. Typically, the signal to noise using an endpoint analysis after the reads was at least three-fold. Alternatively, after Alamar blue reading, plates were rinsed with PBS, 50 ul of DMEM (high glucose) without phenol red was added and plates were then used for luciferase assay using the Promega Dual-Glo Luciferase Assay System.
Compound analysis was determined by quantification of the relative HCV replicon inhibition and the relative cytotoxicity values. To calculate cytoxicity values, the average Alamar Blue fluorescence signals from the control wells were set as 100% non-toxic. The individual signals in each of the compound test wells were then divided by the average control signal and multiplied by 100% to determine […]. To calculate the HCV replicon inhibition values, an average background value was obtained from the two wells containing the highest amount of HCV protease inhibitor at the end of the assay period. These numbers were similar to those obtained from naïve Huh-7 cells.
The background numbers were then subtracted from the average signal obtained from the control wells and this number was used as 100% activity. The individual signals in each of the compound test wells were then divided by the averaged control values after background subtraction and multiplied by 100% to determine percent activity. EC50 values for a protease inhibitor titration were calculated as the concentration which caused a 50% reduction in FRET or luciferase activity. The two numbers generated for the compound plate, percent cytoxicity and percent activity were used to determine compounds of interest for further analysis.

SMILES | IC50 [1] [nM] | EC50 (HCV replicon cells) [nM]
COc1ccc2c(c1)C1CC1(S(=O)(=O)N(C)C)Cn1c-2c(C2CCCCC2)c2ccc(C(=O)O)cc21 (stereo not drawn) | 1000 to 10000 | 20 to 1000
COc1ccc2c(c1)C1CC1(S(=O)(=O)N(C)CCN(C)C)Cn1c-2c(C2CCCCC2)c2ccc(C(=O)O)cc21 (stereo not drawn) | 20 to 1000 | 20 to 1000
COc1ccc2c(c1)C1CC1(S(=O)(=O)N(C)CC(=O)N1CCOCC1)Cn1c-2c(C2CCCCC2)c2ccc(C(=O)O)cc21 (stereo not drawn) | 20 to 1000 | 20 to 1000
COc1ccc2c(c1)C1CC1(S(=O)(=O)N1CCC(O)CC1)Cn1c-2c(C2CCCCC2)c2ccc(C(=O)O)cc21 (stereo not drawn) | 20 to 1000 | 20 to 1000
COc1ccc2c(c1)C1CC1(S(=O)(=O)N1CC(O)C1)Cn1c-2c(C2CCCCC2)c2ccc(C(=O)O)cc21 (stereo not drawn) | 20 to 1000 | 20 to 1000
COc1ccc2c(c1)C1CC1(S(=O)(=O)N1CC(C)(O)C1)Cn1c-2c(C2CCCCC2)c2ccc(C(=O)O)cc21 (stereo not drawn) | 20 to 1000 | 20 to 1000
COc1ccc2c(c1)C1CC1(S(=O)(=O)N1CC3C[C@H]1CN3C)Cn1c-2c(C2CCCCC2)c2ccc(C(=O)NS(=O)(=O)N(C)C)cc21 (stereo partly drawn) | 20 to 1000 | 20 to 1000
COc1ccc2c(c1)C1CC1(S(=O)(=O)N1C[C@@H](C)N(C)[C@@H](C)C1)Cn1c-2c(C2CCCCC2)c2ccc(C(=O)NS(=O)(=O)N(C)C)cc21 (stereo partly drawn) | 20 to 1000 | 20 to 1000
COc1ccc2c(c1)C1CC1(S(=O)(=O)N1C[C@@H](C)O[C@@H](C)C1)Cn1c-2c(C2CCCCC2)c2ccc(C(=O)NS(=O)(=O)N(C)C)cc21 (stereo partly drawn) | 20 to 1000 | 20 to 1000
COc1ccc2c(c1)C1CC1(S(=O)(=O)N1CCN(S(C)(=O)=O)CC1)Cn1c-2c(C2CCCCC2)c2ccc(C(=O)NS(=O)(=O)N(C)C)cc21 (stereo not drawn) | 20 to 1000 | 20 to 1000
COc1ccc2c(c1)C1CC1(S(=O)(=O)N1CCCN(C)CC1)Cn1c-2c(C2CCCCC2)c2ccc(C(=O)NS(=O)(=O)N(C)C)cc21 (stereo not drawn) | 20 to 1000 | 20 to 1000
COc1ccc2c(c1)C1CC1(S(=O)(=O)N(C)C)Cn1c-2c(C2CCCCC2)c2ccc(C(=O)NS(=O)(=O)N(C)C)cc21 (stereo not drawn) | 20 to 1000 | 20 to 1000
COc1ccc2c(c1)C1CC1(S(=O)(=O)N(C)CCN(C)C)Cn1c-2c(C2CCCCC2)c2ccc(C(=O)NS(=O)(=O)N(C)C)cc21 (stereo not drawn) | 20 to 1000 | 20 to 1000
COc1ccc2c(c1)C1CC1(S(=O)(=O)N(C)CC(=O)N1CCOCC1)Cn1c-2c(C2CCCCC2)c2ccc(C(=O)NS(=O)(=O)N(C)C)cc21 (stereo not drawn) | 20 to 1000 | 20 to 1000
COc1ccc2c(c1)C1CC1(S(=O)(=O)N1C[C@@H](C)N(C)[C@@H](C)C1)Cn1c-2c(C2CCCCC2)c2ccc(C(=O)NS(=O)(=O)C(C)C)cc21 (stereo partly drawn) | 20 to 1000 | 20 to 1000
